Like-named read-outs stand apart in the source and are kept apart here.
Experiments:
[1] = tested on: A/PR/8/34 (H1N1), M2 V27T/S31N; format: cell-based, Influenza A virus
M2 22-62 (S31N) = M2 22-62 (S31N) (Influenza A virus, UniProt P0DOF5, C50S/S31N); format: biochemical
[2] = tested on: Influenza A/California/07/2009 (H1N1), M2 S31N; format: cell-based, Influenza A virus
[3] = tested on: Influenza A/California/07/2009 (H1N1), M2 S31N; details: cited from earlier work
[4] = tested on: Influenza A/Victoria/3/75 (H3N2); experiment: microbe, parasite or virus in culture; format: cell-based
A/WS/33 (H1N1), M2 S31N = format: cell-based, Influenza A virus
[5] = tested on: Influenza A/California/07/2009 (H1N1); format: cell-based, Influenza A virus; details: read-out: EC50 against the passage 12 7-resistant mutant
[6] = read-out: EC50 A/Calif/07/09 (H1N1)
[7] = read-out: EC50s of the drug components of the incubation mixture

Structure (SMILES) | EC50 [1] | EC50 [2, 6] | EC50 ([2]; read-out: EC50 ± SE (μM) (N)) | EC50 (A/WS/33 (H1N1), M2 S31N) | further results
NC12CC3CC(CC(C3)C1)C2 [Amantadine (1), Amantadine, reference compound] | 24 µM | 240 µM | 242 µM | 24 µM | H^+ Uptake Rate ± SD (%) (N) (M2 22-62 (S31N)): 77 ± 29 (8) %; activity against H1N1 (2009) (known) [3]: inactive; EC50 ± S.E. (μM) [4]: Inactive; Resistance development [4]: complete during a single 3-4 day passage; EC50 ([4]; Influenza A virus, H3N2, read-out: EC50 ± S.E. (μM)): 2.8 ± 0.3 µM
O=C1CCC2(N1)C1CC3CC(C1)CC2C3 (stereo not shown) [Compound 3] |  |  | 15.6 µM |  | 
C1CCC2(NC1)C1CC3CC(C1)CC2C3 (stereo not shown) [Compound 6] |  |  | 19.8 µM |  | H^+ Uptake Rate ± SD (%) (N) (M2 22-62 (S31N)): 1.3 ± 5.7 (6) %
CCCC1(N)C2CC3CC(C2)CC1C3 (stereo not shown) [Compound 7] | 0.5 µM | 4.7 µM | 4.71 µM | 390 µM | H^+ Uptake Rate ± SD (%) (N) (M2 22-62 (S31N)): 24 ± 17 (6) %
C1CNC(C23CC4CC(CC(C4)C2)C3)C1 (stereo not shown) [Compound 8] |  |  | 15.4 µM |  | H^+ Uptake Rate ± SD (%) (N) (M2 22-62 (S31N)): 12 ± 13 (5) %
NC1(C23CC4CC(CC(C4)C2)C3)CCCC1 [Compound 9] |  |  | 0.79 µM |  | H^+ Uptake Rate ± SD (%) (N) (M2 22-62 (S31N)): 11 ± 25 (3) %; EC50 [2, 7]: 0.36 µM; EC50 [5]: 22 ± 2 µM
C1CCC(C23CC4CC(CC(C4)C2)C3)NC1 (stereo not shown) [Compound 10] |  |  | 7 µM |  | EC50 [2, 7]: 2.8 µM
CC12CC3CC(CC(C3)C13CCCN3)C2 [Compound 11, (1r,3s,5R,7S)-1-methylspiro[adamantane-2,2′-pyrrolidine]] |  |  | 36 µM |  | H^+ Uptake Rate ± SD (%) (N) (M2 22-62 (S31N)): 17 ± 8.7 (6) %
NCCN1CCCC12C1CC3CC(C1)CC2C3 (stereo not shown) [Compound 12, 2-((1r,3r,5r,7r)-spiro[adamantane-2,2′-pyrrolidin]-1′-yl)ethan-1-amine] |  |  | 2.66 µM |  | H^+ Uptake Rate ± SD (%) (N) (M2 22-62 (S31N)): 11 ± 18 (4) %
NC1(C23CC4CC(CC(C4)C2)C3)CCCCC1 [Compound 13, 1-((3r,5r,7r)-adamantan-1-yl)cyclohexan-1-amine] |  |  | 3.62 µM |  | EC50 [5]: 10 ± 2 µM
CCCCC1(N)C2CC3CC(C2)CC1C3 (stereo not shown) [Compound 17, (1r,3r,5r,7r)-2-butyladamantan-2-amine] | 0.3 µM | 8.5 µM |  | 355 µM | 
CC(C)CC1(N)C2CC3CC(C2)CC1C3 (stereo not shown) [Compound 18, (1r,3r,5r,7r)-2-isobutyladamantan-2-amine] | 0.3 µM | 8 µM |  | 210 µM | 
NC1(c2ccccc2)C2CC3CC(C2)CC1C3 (stereo not shown) [Compound 19, (1r,3r,5r,7r)-2-phenyladamantan-2-amine] | < 0.3 µM | 21 µM |  | 86 µM | EC50 [2, 7]: 9.2 µM
NC1(Cc2ccccc2)C2CC3CC(C2)CC1C3 (stereo not shown) [Compound 20, (1r,3r,5r,7r)-2-benzyladamantan-2-amine] | 1.2 µM | 8.6 µM |  | 280 µM | 
CCCCCCC1(N)C2CC3CC(C2)CC1C3 (stereo not shown) [Compound 101, 2-n-hexyl-tricyclo[3.3.1.1^3,7]decan-2-amine] | 0.07 µM | 0.13 µM |  | 13 µM | inhibition of the A/WS/33 strain (in words) (A/WS/33 (H1N1), M2 S31N): some inhibitory effect
CC(C)(N)C12CC3CC(CC(C3)C1)C2 [Compound 259, 2-(adamantan-1-yl)propan-2-amine] | < 0.2 µM | 24 µM |  | 300 µM | 
CC1CCC2(N1)C1CC3CC(C1)CC2C3 (stereo not shown) [Compound 341, 5-methylspiro[pyrrolidine-2,2′-tricyclo[3.3.1.1^3,7]decane]] |  | 34 µM |  |  | efficacy against A/California/07/2009 (in words) [2]: less effective than the others
CC1CNC2(C1)C1CC3CC(C1)CC2C3 (stereo not shown) [Compound 342, 4-Methylspiro[pyrrolidine-2,2′-tricyclo[3.3.1.1^3,7]decane]] |  | 9.5 µM |  |  | 
CC1CCNC12C1CC3CC(C1)CC2C3 (stereo not shown) [Compound 343, 3-Methylspiro[pyrrolidine-2,2′-tricyclo[3.3.1.1^3,7]decane]] |  | 7.2 µM |  |  | 
CC1CCC2(C3CC4CC(C3)CC2C4)N1C (stereo not shown) [Compound 344, 1,5-Dimethylspiro[pyrrolidine-2,2′-tricyclo[3.3.1.1^3,7]decane]] |  | 7.7 µM |  |  | 
CC1CN(C)C2(C1)C1CC3CC(C1)CC2C3 (stereo not shown) [Compound 345, 1,4-dimethylspiro[pyrrolidine-2,2′-tricyclo [3.3.1.1^3,7]decane]] |  | 7 µM |  |  | 
CC1CCN(C)C12C1CC3CC(C1)CC2C3 (stereo not shown) [Compound 346, 1,3-dimethylspiro[pyrrolidine-2,2′-tricyclo [3.3.1.1^3,7]decane]] |  | 10.2 µM |  |  | 
CCC1CCC2(N1)C1CC3CC(C1)CC2C3 (stereo not shown) [Compound 347, 5-ethylspiro[pyrrolidine-2,2′-tricyclo[3.3.1.1^3,7]decane]] |  | 8.7 µM |  |  | 
CC(N)C12CC3CC(CC(C3)C1)C2 (stereo not shown) [Rimantadine (2), Rimantadine, reference compound] | 3.3 µM | 110 µM | 106 µM | 310 µM | activity against H1N1 (2009) (known) [3]: inactive
